Data as given in US20100099897A1, “STABLE ANHYDROUS CRYSTALLINE DOCETAXEL AND METHOD FOR THE PREPARATION THEREOF” (HANMI PHARM. CO., LTD., priority 2007, published 2010).

Columns and labels:
[1] = Storage for 7 days at 40° C. under a relative humidity of 25% to 50%; type: physicochemical; details: comparable condition: 7 days, relative humidity 25% to 50%
[2] = Stability under a high temperature/humidity condition (HPLC purity after aging); type: physicochemical; details: for Purity after 1 week / Purity after 2 weeks / Purity after 4 weeks / Initial purity / Purity after 8 weeks: HPLC; for Initial purity: before aging
Protocol: The long-term storage stabilities of anhydrous crystalline forms of docetaxel prepared in Examples 1, 4, 5, and 6, respectively were compared with that of docetaxel trihydrate prepared according to the method of U.S. Pat. No. 6,022,985 by subjecting sample thereof to aging under a high temperature/humidity condition (60±2° C.; 75±5% relative humidity). The amounts of the original compound in each sample after 1, 2, 4 and 8 weeks were determined by high performance liquid chromatography (HPLC).

[3] = 60±2° C., 75±5% relative humidity

SMILES | Dehydration during storage [1] | Purity after 1 week [2, 3] [%] | Purity after 2 weeks [2, 3] [%] | Purity after 4 weeks [2, 3] [%] | Storage stability under a high temperature/humidity condition (in words) ([2]; 60±2° C., 75±5% relative humidity, up to 8 weeks) | Initial purity [2] [%] | Purity after 8 weeks [2, 3] [%]
CC(=O)O[C@@]12CO[C@@H]1C[C@H](O)[C@@]1(C)C(=O)[C@H](O)C3=C(C)[C@@H](OC(=O)[C@H](O)[C@@H](NC(=O)OC(C)(C)C)c4ccccc4)C[C@@](O)([C@@H](OC(=O)c4ccccc4)[C@H]21)C3(C)C [Docetaxel trihydrate, docetaxel trihydrate, reference compound] | at least 50% | 99.3 | 99.0 | 98.7 | rapid degradation | 99.4 | –
CC(=O)O[C@@]12CO[C@@H]1C[C@H](O)[C@@]1(C)C(=O)[C@H](O)C3=C(C)[C@@H](OC(=O)[C@H](O)[C@@H](NC(=O)OC(C)(C)C)c4ccccc4)C[C@@](O)([C@@H](OC(=O)c4ccccc4)[C@H]21)C3(C)C [Example 1, docetaxel] | – | 99.8 | 99.8 | 99.7 | – | 99.8 | 99.6
CC(=O)O[C@@]12CO[C@@H]1C[C@H](O)[C@@]1(C)C(=O)[C@H](O)C3=C(C)[C@@H](OC(=O)[C@H](O)[C@@H](NC(=O)OC(C)(C)C)c4ccccc4)C[C@@](O)([C@@H](OC(=O)c4ccccc4)[C@H]21)C3(C)C [Example 4, docetaxel] | – | 99.8 | 99.7 | 99.6 | – | 99.8 | 99.5
CC(=O)O[C@@]12CO[C@@H]1C[C@H](O)[C@@]1(C)C(=O)[C@H](O)C3=C(C)[C@@H](OC(=O)[C@H](O)[C@@H](NC(=O)OC(C)(C)C)c4ccccc4)C[C@@](O)([C@@H](OC(=O)c4ccccc4)[C@H]21)C3(C)C [Example 5, docetaxel] | – | 99.7 | 99.7 | 99.6 | – | 99.7 | 99.6
CC(=O)O[C@@]12CO[C@@H]1C[C@H](O)[C@@]1(C)C(=O)[C@H](O)C3=C(C)[C@@H](OC(=O)[C@H](O)[C@@H](NC(=O)OC(C)(C)C)c4ccccc4)C[C@@](O)([C@@H](OC(=O)c4ccccc4)[C@H]21)C3(C)C [Example 6, docetaxel] | – | 99.7 | 99.7 | 99.6 | – | 99.7 | 99.5
